In article PMC12389534, “Unlocking Therapeutic Potential of Novel Thieno-Oxazepine Hybrids as Multi-Target Inhibitors of AChE/BChE and Evaluation Against Alzheimer’s Disease: In Vivo, In Vitro, Histopathological, and Docking Studies” (Pharmaceuticals, 2025):
Entries after “also recorded” stand apart in the source; their conditions may differ.

Columns and labels:
BACE1 = test: Brain BACE1 level (ELISA); assay type: in vivo, rat; set-up: reduction of BACE1 levels: concentration or dose not given beside the values; conditions: AlCl3-induced AD rats; for BACE1 (ng/mL): mean ± SE, n = 6
Method: The brain tissues of the rats were removed and rigorously washed in isotonic saline 24 h after they were euthanized following the last behavioral test. For histological investigation, four brains per group were preserved for the whole night in 10% neutral buffered formalin. The remaining six brains were split into two sections each. In order to create a 10% homogenate (w/v), the first component was instantaneously homogenized using an ice-cold solution that included 300 mM sucrose and 50 mM Tris-HCl (pH 7.4). The homogenate was centrifuged at 1800× g for 10 min at 4 °C for biochemical tests, and the supernatant was thereafter kept at −20 °C. The second portion was set aside for use in RT-PCR analysis at −80 °C [94]. […]

[1] = test system: AlCl3-induced AD rat model; test: Morris water maze (MWM) test in AlCl3-induced AD rats; assay type: in vivo; conditions: for Learning (s): escape latency; for Learning (s) / Memory (s): mean ± SE, n = 6; for Memory (s): time spent in target quadrant
Method: All procedures were conducted conforming to the applicable National Institutes of Health standards and regulations for the Care and Use of Laboratory Animals. In this experiment, adult male Dawley rats in excellent condition weighing between 300 and 320 g were used. The animals were acquired from the Nile Company for Pharmaceuticals and Chemical Industries (Cairo, Egypt). They were placed in a controlled laboratory setting with unrestricted access to water, a temperature range of 24 to 26 °C, and 12 h a light–dark cycle. Three rats per cage were housed in polycarbonate cages that were individually packed with paper and encased with stainless steel wire.
Spatial learning and memory were inspected using the MWM test. Tap water was poured into a 150 cm diameter by 60 cm high circular water tank until it reached a depth of 30 cm (25 ± 2 °C). To make the water […], non-toxic white dye was applied. The east, west, north, and south quadrants of the pool were essentially separated into four equal sections. At a specific spot in the middle of one quadrant, an escape platform with a diameter of 10 cm was submerged 2 cm below the water’s surface. The platform stood in the exact same quadrant throughout the testing. The rats’ swimming route was recorded by a video camera situated above the pool. From a designated spot in each quadrant, each rat was submerged in the water with its back turned to the pool wall, and it was then left to swim to the platform. The rats received training sessions every day for three days in a row, with four trials conducted in each session. Before the next trial began, the animals were kept a maximum of 60 s to explore the hidden platform. After that, they were permitted to relax on it for 20 s. The rat was positioned gently on the platform and allowed 20 s to rest if it took longer than 60 s to locate it. The time taken to find the platform, or the escape latency, was documented. In order to do a probing test on the fourth day, the platform was detached away, and the rats were given 60 s to swim liberally. The time spent in the assigned quadrant was counted.

BAX/Bcl-2 = BAX/Bcl-2 ratio of gene expression; assay type: in vivo, rat; conditions: AlCl3-induced AD rats
Method: (§1) The brain tissues of the rats were removed and rigorously washed in isotonic saline 24 h after they were euthanized following the last behavioral test. For histological investigation, four brains per group were preserved for the whole night in 10% neutral buffered formalin. The remaining six brains were split into two sections each. In order to create a 10% homogenate (w/v), the first component was instantaneously homogenized using an ice-cold solution that included 300 mM sucrose and 50 mM Tris-HCl (pH 7.4). The homogenate was centrifuged at 1800× g for 10 min at 4 °C for biochemical tests, and the supernatant was thereafter kept at −20 °C. The second portion was set aside for use in RT-PCR analysis at −80 °C [94].
(§2) See Supplementary Information.

HO-1 = HO-1 mRNA expression (RT-qPCR); assay type: in vivo, rat; conditions: AlCl3-induced AD rats; for HO-1: mRNA expression in brain tissue, mean ± SE, n = 6
Method: as §1, §2

Caspase-1 = Caspase-1 gene expression (RT-qPCR); assay type: in vivo, rat; set-up: reduction of Caspase-1 levels: concentration or dose not given beside the values; conditions: AlCl3-induced AD rats; for Caspase-1: gene expression, mean ± SE, n = 6
Method: as §1, §2

[2] = test system: brain tissue (CC, ST, FD, SN neurons); test: Histopathological examination of brain tissue; assay type: in vivo, rat; conditions: brain sections, AlCl3-induced AD rats; for histopathological finding in CC, ST, FD and SN (NP = nuclear pyknosis): H&E
Method: as §1
Brain tissue samples were stationed in 10% formalin for 24 h, washed with water, and then serially diluted with alcohol to induce dehydration. After being submerged in paraffin, the specimens were cut into segments that were 4 µm thick using a microtome.

BDNF = test: Brain BDNF level (ELISA); assay type: in vivo, rat; conditions: AlCl3-induced AD rats; for BDNF (ng/mL): brain tissue, mean ± SE, n = 6
Method: as §1, §2

5-HT = test: Brain 5-HT level (fluorometric); assay type: in vivo, rat; conditions: AlCl3-induced AD rats; for 5-HT (ng/g Tissue): brain tissue, mean ± SE, n = 6
Method: as §1
Brain monoamine levels were promptly assessed following the rats’ euthanasia to prevent changes in the substance’s concentration. Dopamine (DA), norepinephrine (NE), and serotonin (5-HT) fluorometric tests were conducted on brain tissue homogenate using the Ciarlone method. […] The concentrations were articulated as nanograms per gram of fresh tissue using the fluorescence of reference solutions [95].

Nrf-2 = Nrf-2 mRNA expression (RT-qPCR); assay type: in vivo, rat; conditions: AlCl3-induced AD rats; for Nrf-2: mRNA expression in brain tissue, mean ± SE, n = 6
Method: as §1, §2

TAC = test: Brain TAC (colorimetric); assay type: in vivo, rat; conditions: AlCl3-induced AD rats; for TAC (µmol/g Tissue): brain tissue, mean ± SE, n = 6
Method: as §1
The SOD enzyme activity was estimated using the Marklund et al. method, which is founded on the enzyme’s capacity to decrease the nitro blue tetrazolium dye at a wavelength of 540 nm. To evaluate the TAC, a colorimetric approach was employed to estimate the amount of hydrogen peroxide that remains after 3,5-dichloro-2-hydroxybenzene sulphonate is converted to a colored product at 660 nm.

Bcl-2 = Bcl-2 gene expression (RT-qPCR); assay type: in vivo, rat; conditions: AlCl3-induced AD rats; for Bcl-2: gene expression, mean ± SE, n = 6
Method: as §1, §2

NLRP3 = NLRP3 mRNA expression (RT-qPCR); assay type: in vivo, rat; set-up: reduction of NLRP3 mRNA expression: concentration or dose not given beside the values; conditions: AlCl3-induced AD rats; for NLRP3: mRNA expression level, mean ± SE, n = 6
Method: as §1, §2

NFκβ = NFκβ mRNA expression (RT-qPCR); assay type: in vivo, rat; set-up: reduction of NFκβ mRNA expression: concentration or dose not given beside the values; conditions: AlCl3-induced AD rats; for NFκβ: mRNA expression level, mean ± SE, n = 6
Method: as §1, §2

SMILES | reduction of BACE1 levels (BACE1) [%] | BACE1 (ng/mL) (BACE1) | reduction in escape latency [1] [%] | Learning (s) [1] | Memory (s) [1] | BAX/Bcl-2 Ratio (BAX/Bcl-2) | HO-1 (HO-1) | Caspase-1 (Caspase-1) | histopathological finding in CC, ST, FD and SN (NP = nuclear pyknosis) [2] | BDNF (ng/mL) (BDNF) | elevation of 5-HT levels (5-HT) [fold] | 5-HT (ng/g Tissue) (5-HT) | Nrf-2 (Nrf-2) | improvement of TAC levels (TAC) | TAC (µmol/g Tissue) (TAC) | Bcl-2 (Bcl-2) | NLRP3 (NLRP3) | NFκβ (NFκβ) | increase in quadrant residence time [1] [times] | elevation of HO-1 mRNA expression (HO-1) [fold] | further results
CCOC(=O)c1c(O)sc2c1CCCCC2 [Compound 2, Ethyl 2-hydroxy-5,6,7,8-tetrahydro-4H-cyclohepta[b]thiophene-3-carboxylate] | 20.4 | 23.60 ± 0.2 ^abc ng/mL | 32.2 | 33.33 ± 0.8 ^abc s | 24.17 ± 1.22 ^abc s | 30.11 | 0.34 ± 0.032 ^abc | 7.46 ± 0.120 ^abc | moderate NP in CC, FD, and SN, in addition to normal histology in ST; also recorded: significant NP in the CC, FD, and SN, whereas the striatal neurons’ histological structures remained normal | 64.95 ± 0.01 ^abc ng/mL | 1.7 | 3.16 ± 0.63 ^abc ng/g Tissue | 0.25 ± 0.008 ^abc | 1.9 times | 18.26 ± 0.395 ^abc µmol/g Tissue | 0.27 ± 0.007 ^abc | 8.29 ± 0.09 ^abc | 6.53 ± 0.08 ^abc | – | – | –
CCOC(=O)c1c(OC(=O)CCl)sc2c1CCCCC2 [Compound 4, Ethyl 2-(2-chloroacetoxy)-5,6,7,8-tetrahydro-4H-cyclohepta[b]thiophene-3-carboxylate] | 26.2 | 21.89 ± 0.27 ^abc ng/mL | 35.9 | 31.5 ± 1.48 ^abc s | 26.67 ± 1.54 ^abc s | 19.53 | 0.39 ± 0.007 ^abc | 6.46 ± 0.120 ^abc | moderate NP in CC and SN, a moderate number of necrotic neurons in FD, as well as normal histology of ST neurons; also recorded: significant NP in the CC, FD, and SN, whereas the striatal neurons’ histological structures remained normal | 75.75 ± 0.01 ^abc ng/mL | 2.4 | 4.29 ± 0.76 ^abc ng/g Tissue | 0.31 ± 0.004 ^abc | 2.7 times | 25.87 ± 0.965 ^abc µmol/g Tissue | 0.38 ± 0.020 ^abc | 6.30 ± 0.09 ^abc | 5.77 ± 0.19 ^abc | – | – | –
O=C1CN(c2ccccc2)C(=O)c2c(sc3c2CCCCC3)O1 [Compound 11, 4-Phenyl-3,4,7,8,9,10-hexahydro-6H-cyclohepta[4,5]thieno[3,2-f][1,4]oxazepine-2,5-dione] | 36.5 | 18.83 ± 0.13 ^abc ng/mL | – | 25.17 ± 1.25 ^abc s | 35.17 ± 0.95 ^abc s | 13.15 | 0.53 ± 0.004 ^abc | 5.92 ± 0.040 ^abc | mild NP in neurons in CC and moderate NP in ST, FD, and SN; also recorded: minor NP in the CC and significant NP in FD, ST, and SN | 127.3 ± 0.01 ^abc ng/mL | 5.0 | 9.13 ± 0.36 ^abc ng/g Tissue | 0.35 ± 0.006 ^abc | 4 times | 38.23 ± 0.50 ^abc µmol/g Tissue | 0.52 ± 0.020 ^abc | 5.39 ± 0.11 ^abc | 4.93 ± 0.08 ^abc | 3.5 | 4.4 | reduction of Caspase-1 levels (Caspase-1): 37.8%; elevation of BDNF levels (BDNF): 3 fold; upregulation of Bcl-2 gene expression (Bcl-2): 4.3 fold; reduction of NLRP3 mRNA expression (NLRP3): 49.5%; reduction of NFκβ mRNA expression (NFκβ): 41.8%
O=C1CN(c2ccc(Cl)cc2)C(=O)c2c(sc3c2CCCCC3)O1 [Compound 12, 4-(4-Chlorophenyl)-3,4,7,8,9,10-hexahydro-6H-cyclohepta[4,5]thieno[3,2-f][1,4]oxazepine-2,5-dione] | 53.9 | 13.68 ± 0.2 ^abc ng/mL | – | 23.5 ± 1.23 ^abc s | 37.17 ± 1.52 ^abc s | 5.91 | 0.69 ± 0.020 ^abc | 4.54 ± 0.090 ^abc | normal histology in CC and FD, as well as mild NP in ST and SN | 83.62 ± 0.06 ^abc ng/mL | 2.8 | 5.07 ± 0.18 ^abc ng/g Tissue | 0.64 ± 0.020 ^abc | approximately 3 times | 29.33 ± 0.57 ^abc µmol/g Tissue | 0.82 ± 0.020 ^abc | 3.21 ± 0.12 ^abc | 4.30 ± 0.14 ^abc | 3.7 | 5.7 | reduction of Caspase-1 levels (Caspase-1): 52.3%; histology of CC neurons and FD [2]: normal histological structures; pyknosis in ST and SN neurons [2]: minimal pyknosis; elevation of BDNF levels (BDNF): 2 fold; elevation of Nrf-2 mRNA expression (Nrf-2): 4 fold; upregulation of Bcl-2 gene expression (Bcl-2): 6.8 fold; reduction of NLRP3 mRNA expression (NLRP3): 69.9%; reduction of NFκβ mRNA expression (NFκβ): 49.2%
